Measurements from patent US20030059878A1, “Novel purinoceptor and gene thereof” (TANABE SEIYAKU CO., LTD, priority 2001, published 2003).

Target: T1, fusion protein of TG0022 protein and Giαl (^351Cys→Ile) (Homo sapiens, UniProt P63096+Q9BPV8, C351I)
T1 construct: made in house; host or cells: Sf9 (Spodoptera frugiperda) insect cells, baculovirus vector pVL1392; membrane fraction
Experiment: [35S]GTPγS binding to membrane fraction containing fusion protein of TG0022 protein and Giαl (351Cys→Ile)
Assay type: biochemical
Settings: Sf9 membrane fraction, TG0022-Giαl (351Cys→Ile) fusion; relative to control without test compound (FIG. 4)
Source text: It was assumed that TG0022 protein would be a G protein-coupled receptor as is disclosed in Example 1. Then, by using a membrane fraction containing a fusion protein of TG0022 protein and G protein, the identification of ligand was done by a method of detecting a ligand-dependent binding with GTPγS (guanosine 5′-O-(3-thiotriphosphate)) (Wenzel-Seifert et al., Mol. Pharmacol., Vol. 58, pp. 954-966, 2000; Bahia et al., Biochemistry, Vol. 37, pp. 11555-11562, 1998).
The Sf9 cells were inoculated in a 10 cm plate which was coated with collagen so as to be about 70% confluency, and thereto were added Virus Solution III obtained above (100 μl) and a medium (12 ml), and the mixture was cultivated at 27° C. for 4 days. […]
The membrane fraction obtained in the above (2) (450 μl) was suspended into a reaction buffer (7.54 ml), and thereto was added GDP (10 mM, 10 μl). […] The filter was washed with a cooled reaction buffer (200 μl) three times, and the amount of [^35S]GTPγS (amount bound to the membrane fraction) on the filter was measured by a liquid scintillator. […] GTPγS was calculated by reducting an amount of non-specifically bound [^35S] GTPγS (which was measured in the presence of 10 μM GTPγS) from the amount of [^35S]GTPγS obtained above.

T1 sequence (Q9BPV8+P63096 fused P63096:C351I): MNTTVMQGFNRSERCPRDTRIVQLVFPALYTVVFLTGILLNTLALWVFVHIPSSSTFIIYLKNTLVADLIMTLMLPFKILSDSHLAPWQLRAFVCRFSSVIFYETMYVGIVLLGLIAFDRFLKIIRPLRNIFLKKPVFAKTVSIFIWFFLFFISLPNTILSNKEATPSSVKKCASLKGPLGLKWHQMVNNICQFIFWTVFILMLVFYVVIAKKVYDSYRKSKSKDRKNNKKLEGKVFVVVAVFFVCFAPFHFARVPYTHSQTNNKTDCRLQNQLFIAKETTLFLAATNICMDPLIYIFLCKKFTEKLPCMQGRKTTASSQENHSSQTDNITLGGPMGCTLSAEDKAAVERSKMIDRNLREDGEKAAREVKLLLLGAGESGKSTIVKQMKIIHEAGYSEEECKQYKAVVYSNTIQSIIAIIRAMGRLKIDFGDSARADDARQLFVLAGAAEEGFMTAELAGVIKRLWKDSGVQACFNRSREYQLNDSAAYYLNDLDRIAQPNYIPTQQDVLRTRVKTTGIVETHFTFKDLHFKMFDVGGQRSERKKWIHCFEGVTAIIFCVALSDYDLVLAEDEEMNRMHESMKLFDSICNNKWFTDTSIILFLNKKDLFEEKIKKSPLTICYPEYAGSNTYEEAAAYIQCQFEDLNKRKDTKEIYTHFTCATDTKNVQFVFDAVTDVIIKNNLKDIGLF

| Compound | specific binding amount of [^35S] GTPγS |
| --- | --- |
| Nc1ncnc2c1ncn2[C@@H]1O[C@H](COP(=O)(O)OP(=O)(O)O)[C@@H](O)[C@H]1O [ADP] | increased dependent on the concentration |
| Nc1ncnc2c1ncn2[C@@H]1O[C@H](COP(=O)(O)OP(=O)(O)OP(=O)(O)O)[C@@H](O)[C@H]1O [ATP] | increased dependent on the concentration |
